Measured values taken from patent US20050245399A1, “Pyrazole derivatives as herbicidal compositions containing them” (ISHIHARA SANGYO KAISHA, LTD., priority 2004, published 2005).

What was measured:
Type in all cases: in vivo
[1] = tested on: barnyardgrass (Echinochloa crus-galli L.): ECHCG; assay: Test Example 1 pre-emergence herbicidal activity, ECHCG; details: Rate 63 g a.i./ha, visually observed 20th to 23rd day after application
Procedure, shortened: (§1)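 Compound was delivered by small sprayer to sown upland soil one day after sowing, before emergence, at 500 L/ha spray volume. Plant growth was assessed visually around 3 weeks later (days 20–23), 100% denoting complete kill.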

[2] = tested on: crabgrass (Digitaria sanguinalis L.): DIGSA; assay: Test Example 1 pre-emergence herbicidal activity, DIGSA; details: Rate 63 g a.i./ha, visually observed 20th to 23rd day after application
Procedure, shortened: as §1

[3] = tested on: green foxtail (Setaria viridis L.): SETVI; assay: Test Example 1 pre-emergence herbicidal activity, SETVI; details: Rate 63 g a.i./ha, visually observed 20th to 23rd day after application
Procedure, shortened: as §1

[4] = tested on: redroot pigweed (Amaranthus retroflexus L.): AMARE; assay: Test Example 1 pre-emergence herbicidal activity, AMARE; details: Rate 63 g a.i./ha, visually observed 20th to 23rd day after application
Procedure, shortened: as §1

[5] = tested on: prickly sida (Sida spinosa L.): SEDSP; assay: Test Example 1 pre-emergence herbicidal activity, SIDSP; details: Rate 63 g a.i./ha, visually observed 20th to 23rd day after application
Procedure, shortened: as §1

[6] = tested on: velvetleaf (Abutilon theophrasti): ABUTH; assay: Test Example 1 pre-emergence herbicidal activity, ABUTH; details: Rate 63 g a.i./ha, visually observed 20th to 23rd day after application
Procedure, shortened: as §1

[7] = tested on: rice (Oryza sativa L.): ORYSA; assay: Test Example 1 pre-emergence herbicidal activity, ORYSA; details: Rate 63 g a.i./ha, visually observed 20th to 23rd day after application
Procedure, shortened: as §1

[8] = tested on: wheat (Triticum aestivum L.): TRZAX; assay: Test Example 1 pre-emergence herbicidal activity, TRZAX; details: Rate 63 g a.i./ha, visually observed 20th to 23rd day after application
Procedure, shortened: as §1

[9] = tested on: corn (Zea mays L.): ZEAMX; assay: Test Example 1 pre-emergence herbicidal activity, ZEAMX; details: Rate 63 g a.i./ha, visually observed 20th to 23rd day after application
Procedure, shortened: as §1

[10] = tested on: soybean (Glycine max Merr.): GLXMA; assay: Test Example 1 pre-emergence herbicidal activity, GLXMA; details: Rate 63 g a.i./ha, visually observed 20th to 23rd day after application
Procedure, shortened: as §1

[11] = tested on: barnyardgrass (Echinochloa crus-galli L.), ECHCG; assay: Test Example 2 post-emergence (foliage treatment) herbicidal activity, ECHCG; details: 63 g a.i./ha
Procedure, shortened: (§2)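 Greenhouse pot test with upland field soil. Treatment: foliage spray, active ingredient at a predetermined amount, 500 L/ha, spreader 0.1% (v/v); leaf stage 0.1-1.5 (AMARE), 1.1-2.1 (ECHCG), 1.0-2.0 (DIGSA), 1.0-2 (ORYSA). Endpoint: visual % control, d20-23.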

[12] = tested on: crabgrass (Digitaria sanguinalis L.), DIGSA; assay: Test Example 2 post-emergence (foliage treatment) herbicidal activity, DIGSA; details: 63 g a.i./ha
Procedure, shortened: as §2

[13] = tested on: green foxtail (Setaria viridis L.), SETVI; assay: Test Example 2 post-emergence (foliage treatment) herbicidal activity, SETVI; details: 63 g a.i./ha
Procedure, shortened: (§3)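 A small sprayer delivered the diluted WP or EC formulation (500 L/ha water, 0.1% v/v spreader) over emerged seedlings in upland soil pots. Damage relative to untreated plants was graded visually from 0 to 100% three weeks or so later (days 20-23).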

[14] = tested on: redroot pigweed (Amaranthus retroflexus L.), AMARE; assay: Test Example 2 post-emergence (foliage treatment) herbicidal activity, AMARE; details: 63 g a.i./ha
Procedure, shortened: as §2

[15] = tested on: prickly sida (Sida spinosa L.), SIDSP; assay: Test Example 2 post-emergence (foliage treatment) herbicidal activity, SIDSP; details: 63 g a.i./ha
Procedure, shortened: as §3

[16] = tested on: velvetleaf (Abutilon theophrasti), ABUTH; assay: Test Example 2 post-emergence (foliage treatment) herbicidal activity, ABUTH; details: 63 g a.i./ha
Procedure, shortened: as §3

[17] = tested on: rice (Oryza sativa L.), ORYSA; assay: Test Example 2 post-emergence (foliage treatment) herbicidal activity, ORYSA; details: 63 g a.i./ha
Procedure, shortened: as §2

[18] = tested on: wheat (Triticum aestivum L.), TRZAX; assay: Test Example 2 post-emergence (foliage treatment) herbicidal activity, TRZAX; details: 63 g a.i./ha
Procedure, shortened: as §3

[19] = tested on: corn (Zea mays L.), ZEAMX; assay: Test Example 2 post-emergence (foliage treatment) herbicidal activity, ZEAMX; details: 63 g a.i./ha
Procedure, shortened: as §3

[20] = tested on: soybean (Glycine max Merr.), GLXMA; assay: Test Example 2 post-emergence (foliage treatment) herbicidal activity, GLXMA; details: 63 g a.i./ha
Procedure, shortened: as §3

[21] = tested on: barnyardgrass (Echinochiloa oryzicola: ECHOR); assay: Test Example 3 water application herbicidal activity (paddy), ECHOR; details: 63 g a.i./ha, water application under submerged condition at 0.5 leaf stage, visually observed 14th day after application; 0 = untreated control, 100 = complete kill
Procedure, shortened: (§4)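 Submerged application in flooded paddy soil (3–4 cm water); weeds treated at 0.5-leaf stage, transplanted rice 4 d after transplanting. Scored visually as % growth control: weeds at 14 d, rice at 21 d.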

[22] = tested on: japanese bulrush (Scirpus juncoides: SCPJO); assay: Test Example 3 water application herbicidal activity (paddy), SCPJO; details: 63 g a.i./ha, water application under submerged condition at 0.5 leaf stage, visually observed 14th day after application; 0 = untreated control, 100 = complete kill
Procedure, shortened: as §4

[23] = tested on: japanese ribbon wapato (Sagittaria pygmaea: SA GPY); assay: Test Example 3 water application herbicidal activity (paddy), SAGPY; details: 63 g a.i./ha, water application under submerged condition, tubers planted, visually observed 14th day after application; 0 = untreated control, 100 = complete kill
Procedure, shortened: as §4

[24] = tested on: rice (Oryza sativa L.: ORYSA); assay: Test Example 3 water application herbicidal activity (paddy), transplanted rice ORYSA; details: 63 g a.i./ha, water application 4th day after transplantation of 2 leaf stage rice, visually observed 21st day after application; 0 = untreated control, 100 = complete kill
Procedure, shortened: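 Compound, as diluted wettable powder or emulsifiable concentrate, was pipetted into flood water at a set active-ingredient dose. Weeds were treated at 0.5-leaf stage after sowing or tuber planting; 2-leaf rice 4 days post-transplant. Control scored visually, 0 untreated to 100 complete kill, weeds day 14, rice day 21.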

SMILES | Pre-emergence Herbicidal Activity ECHCG (growth controlling degree) [1] [%] | Pre-emergence Herbicidal Activity DIGSP (growth controlling degree) [2] [%] | Pre-emergence Herbicidal Activity SETVI (growth controlling degree) [3] [%] | Pre-emergence Herbicidal Activity AMARE (growth controlling degree) [4] [%] | Pre-emergence Herbicidal Activity SIDSP (growth controlling degree) [5] [%] | Pre-emergence Herbicidal Activity ABUTH (growth controlling degree) [6] [%] | Pre-emergence Herbicidal Activity ORYSA (growth controlling degree) [7] [%] | Pre-emergence Herbicidal Activity TRZAX (growth controlling degree) [8] [%] | Pre-emergence Herbicidal Activity ZEAMX (growth controlling degree) [9] [%] | Pre-emergence Herbicidal Activity GLXMA (growth controlling degree) [10] [%] | growth controlling degree, ECHCO [11] [%] | growth controlling degree, DIGSP [12] [%] | growth controlling degree, SETVI [13] [%] | growth controlling degree, AMARE [14] [%] | growth controlling degree, SIDSP [15] [%] | growth controlling degree, ABUTH [16] [%] | growth controlling degree, ORYSA [17] [%] | growth controlling degree, TRZAX [18] [%] | growth controlling degree, ZEAMX [19] [%] | growth controlling degree, GLXMA [20] [%] | other results
COc1c(Cl)cc(F)c(-c2nn(C)c(OC(F)F)c2Cl)c1NC(=O)C(C)Oc1ccccc1 (stereo not drawn) [Compound 1-33] | 30 | 40 | 50 | 95 | 50 | 40 | 10 | 10 | 0 | 0 | 80 | 70 | 98 | 100 | 100 | 100 | 50 | 30 | 60 | 60 | growth controlling degrees (%) ECHOR [21]: 100%; growth controlling degrees (%) SCPJO [22]: 40%; growth controlling degrees (%) SAGPY [23]: 98%; growth controlling degrees (%) ORYSA [24]: 35%
COc1c(Cl)cc(F)c(-c2nn(C)c(OC(F)F)c2Cl)c1NC(=O)CCOc1ccccc1 [Compound 1-34] | 0 | 60 | 70 | 100 | 70 | 30 | 0 | 0 | 0 | 0 | 70 | 70 | 100 | 100 | 100 | 100 | 40 | 30 | 50 | 70 | growth controlling degrees (%) ECHOR [21]: 100%; growth controlling degrees (%) SCPJO [22]: 50%; growth controlling degrees (%) SAGPY [23]: 80%; growth controlling degrees (%) ORYSA [24]: 30%
COc1c(Cl)cc(F)c(-c2nn(C)c(OC(F)F)c2Cl)c1NC(=O)COc1ccc(Cl)cc1 [Compound 1-35] | 20 | 50 | 80 | 100 | 20 | 20 | 40 | 20 | 0 | 0 | 80 | 70 | 95 | 100 | 100 | 100 | 60 | 40 | 60 | 80 | growth controlling degrees (%) ECHOR [21]: 100%; growth controlling degrees (%) SCPJO [22]: 70%; growth controlling degrees (%) SAGPY [23]: 60%; growth controlling degrees (%) ORYSA [24]: 30%
COc1c(Cl)cc(F)c(-c2nn(C)c(OC(F)F)c2Cl)c1NC(=O)COc1ccc(C#N)cc1 [Compound 1-36] | 10 | 30 | 60 | 100 | 20 | 30 | 10 | 0 | 0 | 0 | 50 | 60 | 60 | 100 | 100 | 100 | 20 | 10 | 0 | 50 | growth controlling degrees (%) ECHOR [21]: 100%; growth controlling degrees (%) SCPJO [22]: 40%; growth controlling degrees (%) SAGPY [23]: 70%; growth controlling degrees (%) ORYSA [24]: 35%
